Structures are written as SMILES. A value given as a limit tells only on which side of the number the result lay.

For data set [1], the system named is neuroblastoma SHSY5Y cells. The experiment in a line: Cell death induction in SHSY5Y cells. The settings on record: 3 μM, 48 h. It is filed as cell-based. As to the method:
When tested in neuroblastoma SHSY5Y cells at tetrahydro-4H -pyran-4-one MC2912 failed in inducing
3 μM for 48 h, MC2884 and its analogues furnished cell death in SHSY5Y cells, whereas its thio-analogue
(Supplementary SAR Table 1). In general, the SHSY5Y similarly to what observed in NB4 cells.
than NB4 cells. Anyway, also in this cell line the death in both cell lines such as MC2910, 2912, 2909,
(MC2909), and bis 3,5-dibromophenyl (MC2910) were acetylation and EZH2 deregulation (SAR Figure 2). In […]
3-phenyl-1-propan-1-one chain at N1 (MC3187), which 3).

The subject of data set [2] is endometrial stromal cells. As to the kind of experiment: Cytotoxic effect on immortalized non-cancer endometrial stromal cells. It is filed as cell-based.
Data set [3] is described as follows: Mouse terminal IV PK study. It counts as in vivo. The settings on record: iv 2 mg/kg, male CD1 mice, plasma. As for the experimental part:
pHarmaCology male CD1 mice in a 5 mL/kg injection volume. Terminal blood samples (> 230 μL) were taken under CO2 from pharmacokinetic analysis (mice–iV, ip pK study) groups of 3 mice at each of 8 time-points post dose (0.083, 0.25, 0.5, 1, 2, 4, 8 and 24 h) and placed into heparinized
Compound was administered both intravenously and tubes. Samples were placed on ice for no longer than 30 intraperitoneally to mice. Blood samples were collected at min before centrifugation (10,000 rpm × 3 min). Plasma 8 time points over 24 hr and plasma analysed by LC-MS/ samples (>100 μL) were collected into fresh tubes and MS to determine the concentration of compound. frozen on dry ice. Number of plasma samples = 24.
The plasma time concentration profile was Consistent IV profiles were obtained, with little calculated with the main PK parameters (Co, AUClast, variability across the time-points (the average profile is t.,VD, and CL). shown in the second spreadsheet). An average half-life of […]
For ip dosing. After formulation assessment, […]
For iv dosing. Compound was dissolved at 0.4 mg/mL. […]

In a further data set the target is T1, CYP2C19 (Homo sapiens, UniProt P33261).
T1 construct: from tissue; host or cells: human liver microsomes
As to the kind of experiment: Cytochrome P450 inhibition, CYP2C19. It counts as in vitro ADME. The settings on record: human liver microsomes, probe mephenytoin. As to the method:
This provided a dose of 2 mg free base material/kg when Cytochrome p450 inhibition (5 isoform iC50 administered iv in a 5 mL/kg dosing volume. determination) mouse terminal ip pK study ADME-Tox Cytochrome P450 inhibition of Compound MC2884 was given ip at a dose of 2 mg/kg MC2884 using human liver microsomes as an estimation to a group of 24 normally fed male CD1 mice in a 10 mL/ of in vitro metabolism. kg injection volume. Terminal blood samples (> 230 μL) MC2884 (0.1 μM–25 μM) was incubated with were taken under CO2 from groups of 3 mice at each of 8 human liver microsomes and NADPH in the presence time-points post dose (0.083, 0.25, 0.5, 1, 2, 4, 8 and 24 h) of a cytochrome P450 isoform-specific probe substrate. and placed into heparinized tubes. […]
All samples were stored at −20° C measuring the formation of a fluorescent metabolite. […]
Cyp2C19 inhibition (0.1 mg/mL) and NADPH (1 mM) in the presence of the probe substrate midazolam (2.5 μM) for 5 min at Six test compound samples at concentrations 37° C. […] For the CYP1A incubations, the reactions microsomes (0.5 mg/mL) and NADPH (1 mM) in the were terminated by methanol, and the formation of the presence of the probe substrate mephenytoin (25 μM) metabolite, resorufin, was monitored by fluorescence for 60 min at 37° C. […]

T1 sequence (P33261 whole entry): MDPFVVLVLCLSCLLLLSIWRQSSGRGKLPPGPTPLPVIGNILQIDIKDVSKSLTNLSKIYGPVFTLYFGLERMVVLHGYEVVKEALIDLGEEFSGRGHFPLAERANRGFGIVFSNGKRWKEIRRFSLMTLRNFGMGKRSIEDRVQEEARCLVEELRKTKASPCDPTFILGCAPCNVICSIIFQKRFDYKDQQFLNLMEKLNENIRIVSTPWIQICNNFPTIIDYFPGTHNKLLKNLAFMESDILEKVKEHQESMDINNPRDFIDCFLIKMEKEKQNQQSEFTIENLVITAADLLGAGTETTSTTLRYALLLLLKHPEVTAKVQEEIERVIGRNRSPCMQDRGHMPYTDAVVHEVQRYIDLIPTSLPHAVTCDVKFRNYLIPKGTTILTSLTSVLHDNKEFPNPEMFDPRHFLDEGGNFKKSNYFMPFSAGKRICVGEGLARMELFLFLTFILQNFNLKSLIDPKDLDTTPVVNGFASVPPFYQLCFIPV

On to `O=C1/C(=C/c2cccc(Br)c2)CN(Cc2ccccc2)C/C1=C\c1cccc(Br)c1` [MC2884], for which the “% Cell death SHSY5Y cells” value in data set [1] is given as 19.1%. Also, the “cytotoxic effect on endometrial stromal cells” value in data set [2] is “insensitive”. The same compound showed a half-life in data set [3] of 4.58 h. The compound further returned an IC50 against CYP2C19 above 25 µM.

Broadly, the half-life is the time needed for the level to fall by half in the phase considered. Higher therefore signals slow loss. One may read the IC50 as the midpoint of a concentration-inhibition curve.
